# In US20190330189A1, “ANTIBACTERIAL COMPOUNDS” (Janssen Sciences Ireland UC, priority 2015, published 2019):
# System: Mycobacterium tuberculosis strain EH 4.0 (361.269)
# Assay: Test 4: MIC determination, resazurin fluorescence, strain EH 4.0
# Type: cell-based
# Details: Mycobacterium tuberculosis, read-out: pIC50, Test 4, M. tuberculosis strain EH 4.0 (361.269) (converted)
# Text: TEST 4 (See Also Test 1 Above; in this Test a Different Strain of Mycobacterium tuberculosis Strain is Employed)
# Appropriate solutions of experimental and reference compounds were made in 96 well plates with 7H9 medium. Samples of Mycobacterium tuberculosis strain EH 4.0 (361.269) were taken from cultures in stationary growth phase. These were first diluted to obtain an optical density of 0.3 at 600 nm wavelength and then diluted 1/100, resulting in an inoculum of approximately 5×10 exp5 colony forming units per well. Plates were incubated at 37° C. in plastic bags to prevent evaporation. After 7 days, resazurin was added to all wells.
row,Compound,IC50 [µM]
1,CCc1nc2ccc(Cl)cn2c1C(=O)NCc1ccc(N2CC3(CC(Oc4ccc(C(F)(F)F)cc4)C3)C2)cc1 [Compound 72],0.01
2,CCc1nc2ncc(Cl)cn2c1C(=O)NCc1ccc(N2CC3(CC(Oc4ccc(C(F)(F)F)cc4)C3)C2)cc1 [Compound 73],0.2
3,CCc1nc2n(c1C(=O)NCc1ccc(N3CC4(CC(Oc5ccc(C(F)(F)F)cc5)C4)C3)cc1)CCN(C)C2 [Compound 74],0.0631
4,CCc1nc2ccc(Cl)cn2c1C(=O)NCc1ccc(N2CC3(CC(c4cccnc4)C3)C2)cc1 [Compound 77],0.794
5,CCc1nc2n(c1C(=O)NCc1ccc(N3CC4(CC(F)C4)C3)cc1)CCN(C)C2 [Compound 78],2.51
6,CCc1c(C(=O)NCc2ccc(N3CC4(C3)CN(c3ccc(OC(F)(F)F)cc3)C4)cc2)c2cc(Cl)cnc2n1C [Compound 79],> 12.6
7,CCc1c(C(=O)NCc2ccc(N3CC4(C3)CN(c3ccc(OC(F)(F)F)cc3)C4)cc2)c2cc(Cl)ccc2n1C [Compound 80],> 12.6
8,CCc1nc2ccc(Cl)cn2c1C(=O)NCc1ccc(N2CCC3(CC2)CC(F)C3)cc1 [Compound 81],0.00501
9,CCc1nn2ccc(C)nc2c1C(=O)NCc1ccc(N2CC3(CC(c4ccc(OC(F)(F)F)cc4)C3)C2)cc1 [Compound 97],> 12.6
10,CCc1nn2c(C)ccnc2c1C(=O)NCc1ccc(N2CC3(CC(c4ccc(OC(F)(F)F)cc4)C3)C2)cc1 [Compound 98],> 12.6
11,CCc1nc2cn(C)ccc-2c1C(=O)NCC1CC12CCN(c1ccc(OC(F)(F)F)cc1)CC2 (stereo not shown) [Compound 99],> 12.6
12,O=C(NCC1CC2(CCN(c3ccc(OC(F)(F)F)cc3)CC2)C1)c1cc2n(c1)CCCC2 [Compound 100],> 12.6
13,CCc1nc2cnc(Cl)cn2c1C(=O)NCC1CC2(CCN(c3ccc(OC(F)(F)F)cc3)CC2)C1 [Compound 101],1.58
14,CCc1nn2ccc(C)nc2c1C(=O)NCc1ccc(C2CC3(C2)CN(c2ccc(OC(F)(F)F)cc2)C3)cc1 [Compound 102],3.98
15,CCc1nn2c(C)ccnc2c1C(=O)NCc1ccc(C2CC3(C2)CN(c2ccc(OC(F)(F)F)cc2)C3)cc1 [Compound 103],7.94
16,CCc1nc2ccn(C)cc-2c1C(=O)NCc1ccc(N2CC3(CC(c4ccc(OC(F)(F)F)cc4)C3)C2)cc1 [Compound 104],> 12.6
17,CCc1nn2c(C)ccnc2c1C(=O)NCC1CC2(CCN(c3ccc(OC(F)(F)F)cc3)CC2)C1 [Compound 105],> 12.6
18,CCc1nn2ccc(C)nc2c1C(=O)NCC1CC12CCN(c1ccc(OC(F)(F)F)cc1)CC2 (stereo not shown) [Compound 106],> 12.6
19,CCc1nn2ccc(C)nc2c1C(=O)NCC1CC2(CCN(c3ccc(OC(F)(F)F)cc3)CC2)C1 [Compound 107],> 12.6
20,CCc1nn2c(C)ccnc2c1C(=O)NCC1CC12CCN(c1ccc(OC(F)(F)F)cc1)CC2 (stereo not shown) [Compound 108],> 12.6
21,CCc1nc2ccn(C)cc-2c1C(=O)NCC1CC2(CCN(c3ccc(OC(F)(F)F)cc3)CC2)C1 [Compound 109],> 12.6
22,CCc1[nH]c2ncc(Cl)cc2c1C(=O)NCC1CC12CCN(c1ccc(OC(F)(F)F)cc1)CC2 (stereo not shown) [Compound 110],> 12.6
23,CCc1c(C(=O)NCC2CC3(CCN(c4ccc(OC(F)(F)F)cc4)CC3)C2)c2cnccc2n1C [Compound 111],> 12.6
24,CCc1nc2ccn(C)cc-2c1C(=O)NCc1ccc(C2CC3(C2)CN(c2ccc(OC(F)(F)F)cc2)C3)cc1 [Compound 112],3.16
25,CCc1[nH]c2ncc(Cl)cc2c1C(=O)NCC1CC2(CCN(c3ccc(OC(F)(F)F)cc3)CC2)C1 [Compound 113],> 12.6
26,CCc1c(C(=O)NCc2ccc(C3CC4(C3)CN(c3ccc(OC(F)(F)F)cc3)C4)cc2)c2cc(Cl)ccc2n1C [Compound 114],12.6
27,O=C(NCc1ccc(C2CC3(C2)CN(c2ccc(OC(F)(F)F)cc2)C3)cc1)c1cc2c([nH]1)CCCC2 [Compound 115],3.16
28,CCc1nc2ccc(Cl)cn2c1C(=O)NCc1ccc(C2CC3(C2)CN(C=O)C3)cc1 [Compound 116],0.316
